From patent US11518735B2 (AE KYUNG INDUSTRIAL CO., LTD, priority 2017, dated 2022) come the findings set out here.

Entries after “also recorded” stand apart in the source; their conditions may differ.

A short description of the series: Thermal stability by HPLC analysis, samples heated in oven at 90° C. Format: physicochemical. As to conditions: for HPLC peak area: 90° C. oven; for change in peak area (degree of decomposition): after 24 hours versus initial peak area. How it is done:
The thermal stability tests were conducted by heating the compound samples of Formulas 3 and 7 in an oven maintained at 90° C. and measuring the degree of decomposition of each sample.

Regarding `CCCCCCCCCC/C=C/C(CC(=O)NCCCCCCCCCCCCCCCCCC)C(=O)O` (stereo not shown) [Formula 3], the HPLC peak area came to 22760548 (0 hour), 22871539 (1 hour) and 22896857 (24 hours). Also, under “90° C.”, the “change in peak area (degree of decomposition)” value is given as “little change in the peak area ratio”. For the same molecule, the “high-temperature stability compared with Formula 7” value (HPLC, 90° C.) was “better high-temperature stability; also recorded: improved stability”.

`CCCCCCCC/C=C/CCCCCCCCNC(=O)CC(/C=C/CCCCCCCCCCCCCCCC)C(=O)O` (stereo not shown) [Formula 7, reference compound]: the HPLC peak area is, setting by setting: (0 hour) 21694395; (3 hours) 10982003; (6 hours) 11400622; (24 hours) 7124834. Where the note is “90° C.”, the “change in peak area (degree of decomposition)” value is given as “nearly one third of the initial peak area”.
